Test in all cases: biochemical
Common to all, as to format: biochemical

The target of test [1] is 363 human kinases (including Aurora A/B/C) (Homo sapiens, UniProt P07333). Conditions: FMS; for remaining activity at 0.1 µM: 100 nM; for remaining activity at 0.1 µM / remaining activity at 0.5 µM: read-out: % Enzyme Activity (relative to DMSO controls).
Text: (§1) However, the Aurora A/B selectivity ratios derived from our in vitro and in vivo data can be compared to prioritize inhibitors.
Test [2] deals with 363 human kinases (including Aurora A/B/C) (Homo sapiens, UniProt P31751). Conditions: AKT2, [ATP] 100 µM; for remaining activity at 0.1 µM: 100 nM; for remaining activity at 0.1 µM / remaining activity at 0.5 µM: read-out: % Enzyme Activity (relative to DMSO controls).
363 human kinases (including Aurora A/B/C) (Homo sapiens, UniProt P31751), sequence (P31751 whole entry): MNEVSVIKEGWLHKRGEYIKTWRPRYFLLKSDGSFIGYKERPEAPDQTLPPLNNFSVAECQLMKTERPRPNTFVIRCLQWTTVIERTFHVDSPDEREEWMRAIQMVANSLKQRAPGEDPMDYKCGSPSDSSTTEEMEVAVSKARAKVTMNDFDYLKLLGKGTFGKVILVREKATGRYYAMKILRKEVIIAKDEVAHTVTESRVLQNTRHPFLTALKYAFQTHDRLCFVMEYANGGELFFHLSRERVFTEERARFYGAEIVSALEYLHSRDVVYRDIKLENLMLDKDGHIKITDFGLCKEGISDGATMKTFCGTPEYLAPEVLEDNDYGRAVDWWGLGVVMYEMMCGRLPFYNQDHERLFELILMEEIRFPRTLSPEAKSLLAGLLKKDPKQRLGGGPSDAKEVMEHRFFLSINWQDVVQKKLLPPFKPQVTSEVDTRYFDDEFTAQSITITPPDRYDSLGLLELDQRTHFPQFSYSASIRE
Text: as §1
Test [3] has as its target 363 human kinases (including Aurora A/B/C) (Homo sapiens, UniProt Q00537). Conditions: CDK17/cyclin Y (PCTK2), [ATP] 50 µM; for remaining activity at 0.1 µM: 100 nM; for remaining activity at 0.1 µM / remaining activity at 0.5 µM: read-out: % Enzyme Activity (relative to DMSO controls).
Text: as §1
Test [4] deals with T1, 363 human kinases (including Aurora A/B/C) (Homo sapiens, UniProt Q05513).
T1 sequence (Q05513 1-592): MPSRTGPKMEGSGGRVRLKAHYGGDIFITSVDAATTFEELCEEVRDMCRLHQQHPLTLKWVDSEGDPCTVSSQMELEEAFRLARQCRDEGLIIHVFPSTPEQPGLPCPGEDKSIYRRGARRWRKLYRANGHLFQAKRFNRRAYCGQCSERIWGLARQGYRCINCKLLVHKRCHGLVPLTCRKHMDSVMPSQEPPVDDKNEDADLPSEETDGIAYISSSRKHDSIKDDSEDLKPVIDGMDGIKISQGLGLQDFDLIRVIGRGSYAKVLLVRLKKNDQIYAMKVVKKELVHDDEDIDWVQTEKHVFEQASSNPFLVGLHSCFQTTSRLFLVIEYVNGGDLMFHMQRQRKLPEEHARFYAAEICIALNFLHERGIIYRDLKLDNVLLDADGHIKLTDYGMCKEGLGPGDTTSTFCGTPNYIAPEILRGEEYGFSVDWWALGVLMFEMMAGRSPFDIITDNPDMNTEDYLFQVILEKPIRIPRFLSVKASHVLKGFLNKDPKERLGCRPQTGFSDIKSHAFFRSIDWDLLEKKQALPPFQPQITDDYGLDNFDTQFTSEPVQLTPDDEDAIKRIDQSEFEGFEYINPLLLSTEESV
To be noted: PKCzeta; for remaining activity at 0.1 µM: 100 nM; for remaining activity at 0.1 µM / remaining activity at 0.5 µM: read-out: % Enzyme Activity (relative to DMSO controls).
Text: as §1

Test [5] concerns the target 363 human kinases (including Aurora A/B/C) (Homo sapiens, UniProt Q9BXA6). Conditions: SSTK/TSSK6; for remaining activity at 0.1 µM: 100 nM; for remaining activity at 0.1 µM / remaining activity at 0.5 µM: read-out: % Enzyme Activity (relative to DMSO controls).
Text: as §1
The target in test [6] is 363 human kinases (including Aurora A/B/C) (Homo sapiens, UniProt P51812). To be noted: RSK2; for remaining activity at 0.1 µM: 100 nM; for remaining activity at 0.1 µM / remaining activity at 0.5 µM: read-out: % Enzyme Activity (relative to DMSO controls).
363 human kinases (including Aurora A/B/C) (Homo sapiens, UniProt P51812), sequence (P51812 whole entry): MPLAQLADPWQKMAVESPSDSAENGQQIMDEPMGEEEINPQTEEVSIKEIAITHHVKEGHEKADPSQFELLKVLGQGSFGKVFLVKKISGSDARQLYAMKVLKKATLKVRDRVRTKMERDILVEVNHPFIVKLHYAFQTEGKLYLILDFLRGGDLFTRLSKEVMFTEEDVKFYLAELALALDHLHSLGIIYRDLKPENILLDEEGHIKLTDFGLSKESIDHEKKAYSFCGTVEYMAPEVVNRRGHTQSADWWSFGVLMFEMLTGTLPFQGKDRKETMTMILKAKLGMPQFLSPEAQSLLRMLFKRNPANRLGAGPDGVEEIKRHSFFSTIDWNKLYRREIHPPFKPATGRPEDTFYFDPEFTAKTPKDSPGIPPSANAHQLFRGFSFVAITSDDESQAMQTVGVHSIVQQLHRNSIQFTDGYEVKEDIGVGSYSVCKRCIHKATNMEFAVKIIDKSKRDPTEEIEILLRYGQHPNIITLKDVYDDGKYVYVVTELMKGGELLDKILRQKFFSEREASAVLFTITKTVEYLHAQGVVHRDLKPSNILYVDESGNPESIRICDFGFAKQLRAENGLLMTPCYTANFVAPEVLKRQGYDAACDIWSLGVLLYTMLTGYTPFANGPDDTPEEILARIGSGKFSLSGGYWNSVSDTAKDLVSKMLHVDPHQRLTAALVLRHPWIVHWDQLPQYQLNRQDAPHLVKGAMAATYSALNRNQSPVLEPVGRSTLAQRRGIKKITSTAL
Text: as §1
In test [7] the target is 363 human kinases (including Aurora A/B/C) (Homo sapiens, UniProt Q15746). To be noted: MLCK/MYLK; for remaining activity at 0.1 µM: 100 nM; for remaining activity at 0.1 µM / remaining activity at 0.5 µM: read-out: % Enzyme Activity (relative to DMSO controls).
363 human kinases (including Aurora A/B/C) (Homo sapiens, UniProt Q15746), sequence (Q15746 whole entry): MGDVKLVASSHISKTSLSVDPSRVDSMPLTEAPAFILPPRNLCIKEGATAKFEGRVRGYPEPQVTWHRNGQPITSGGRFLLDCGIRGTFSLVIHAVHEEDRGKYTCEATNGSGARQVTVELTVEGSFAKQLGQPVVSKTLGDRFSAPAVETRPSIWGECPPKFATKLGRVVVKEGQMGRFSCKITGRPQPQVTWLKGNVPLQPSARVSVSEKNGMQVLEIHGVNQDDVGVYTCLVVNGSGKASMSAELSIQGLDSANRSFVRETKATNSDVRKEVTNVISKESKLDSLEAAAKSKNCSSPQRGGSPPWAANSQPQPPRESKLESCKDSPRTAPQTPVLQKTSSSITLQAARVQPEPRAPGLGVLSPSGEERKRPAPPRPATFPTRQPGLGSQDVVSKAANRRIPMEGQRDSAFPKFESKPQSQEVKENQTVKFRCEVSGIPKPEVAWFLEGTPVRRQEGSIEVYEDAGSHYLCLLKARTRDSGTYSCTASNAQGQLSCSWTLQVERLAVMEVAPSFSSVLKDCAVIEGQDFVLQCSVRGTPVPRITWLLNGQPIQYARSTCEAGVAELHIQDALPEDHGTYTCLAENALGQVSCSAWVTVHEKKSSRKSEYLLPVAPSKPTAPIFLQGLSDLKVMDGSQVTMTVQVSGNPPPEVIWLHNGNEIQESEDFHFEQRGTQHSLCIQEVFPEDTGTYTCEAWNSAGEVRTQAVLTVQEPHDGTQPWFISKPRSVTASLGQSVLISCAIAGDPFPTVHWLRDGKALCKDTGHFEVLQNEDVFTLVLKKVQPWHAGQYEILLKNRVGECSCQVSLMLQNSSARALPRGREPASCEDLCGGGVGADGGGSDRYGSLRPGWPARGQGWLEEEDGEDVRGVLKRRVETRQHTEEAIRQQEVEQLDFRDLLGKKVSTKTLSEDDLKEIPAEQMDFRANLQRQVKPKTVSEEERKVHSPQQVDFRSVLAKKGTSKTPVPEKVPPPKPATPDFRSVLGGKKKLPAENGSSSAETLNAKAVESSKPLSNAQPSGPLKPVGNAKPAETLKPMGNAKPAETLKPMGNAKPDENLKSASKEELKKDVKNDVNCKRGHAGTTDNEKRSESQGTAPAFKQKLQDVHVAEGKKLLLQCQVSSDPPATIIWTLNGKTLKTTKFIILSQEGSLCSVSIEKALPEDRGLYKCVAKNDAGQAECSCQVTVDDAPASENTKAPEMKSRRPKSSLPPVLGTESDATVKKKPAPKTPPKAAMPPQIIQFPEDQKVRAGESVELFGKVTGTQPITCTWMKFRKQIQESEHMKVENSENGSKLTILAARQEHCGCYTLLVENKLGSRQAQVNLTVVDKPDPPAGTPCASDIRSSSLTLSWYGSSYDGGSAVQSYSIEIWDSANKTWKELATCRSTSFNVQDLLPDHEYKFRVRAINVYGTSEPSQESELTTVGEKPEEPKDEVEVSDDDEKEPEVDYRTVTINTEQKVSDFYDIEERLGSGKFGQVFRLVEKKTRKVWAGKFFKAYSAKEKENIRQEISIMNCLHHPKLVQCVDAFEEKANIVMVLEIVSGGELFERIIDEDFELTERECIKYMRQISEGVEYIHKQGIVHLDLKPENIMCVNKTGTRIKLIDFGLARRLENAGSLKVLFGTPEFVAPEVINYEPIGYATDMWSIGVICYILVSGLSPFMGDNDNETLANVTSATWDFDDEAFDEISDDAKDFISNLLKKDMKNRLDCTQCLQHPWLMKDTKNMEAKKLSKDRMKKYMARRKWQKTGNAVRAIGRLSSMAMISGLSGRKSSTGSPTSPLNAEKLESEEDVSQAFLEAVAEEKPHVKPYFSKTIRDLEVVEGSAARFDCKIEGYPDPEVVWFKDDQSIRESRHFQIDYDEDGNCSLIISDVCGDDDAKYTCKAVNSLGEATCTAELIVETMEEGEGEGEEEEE
Text: as §1
Test [8] deals with 363 human kinases (including Aurora A/B/C) (Homo sapiens, UniProt Q5TCY1). Conditions: TTBK1; for remaining activity at 0.1 µM: 100 nM; for remaining activity at 0.1 µM / remaining activity at 0.5 µM: read-out: % Enzyme Activity (relative to DMSO controls).
Text: as §1
In test [9] the target is 363 human kinases (including Aurora A/B/C) (Homo sapiens, UniProt Q9Y463). Conditions: DYRK1B, [ATP] 20 µM; for remaining activity at 0.1 µM: 100 nM; for remaining activity at 0.1 µM / remaining activity at 0.5 µM: read-out: % Enzyme Activity (relative to DMSO controls).
363 human kinases (including Aurora A/B/C) (Homo sapiens, UniProt Q9Y463), sequence (Q9Y463 whole entry): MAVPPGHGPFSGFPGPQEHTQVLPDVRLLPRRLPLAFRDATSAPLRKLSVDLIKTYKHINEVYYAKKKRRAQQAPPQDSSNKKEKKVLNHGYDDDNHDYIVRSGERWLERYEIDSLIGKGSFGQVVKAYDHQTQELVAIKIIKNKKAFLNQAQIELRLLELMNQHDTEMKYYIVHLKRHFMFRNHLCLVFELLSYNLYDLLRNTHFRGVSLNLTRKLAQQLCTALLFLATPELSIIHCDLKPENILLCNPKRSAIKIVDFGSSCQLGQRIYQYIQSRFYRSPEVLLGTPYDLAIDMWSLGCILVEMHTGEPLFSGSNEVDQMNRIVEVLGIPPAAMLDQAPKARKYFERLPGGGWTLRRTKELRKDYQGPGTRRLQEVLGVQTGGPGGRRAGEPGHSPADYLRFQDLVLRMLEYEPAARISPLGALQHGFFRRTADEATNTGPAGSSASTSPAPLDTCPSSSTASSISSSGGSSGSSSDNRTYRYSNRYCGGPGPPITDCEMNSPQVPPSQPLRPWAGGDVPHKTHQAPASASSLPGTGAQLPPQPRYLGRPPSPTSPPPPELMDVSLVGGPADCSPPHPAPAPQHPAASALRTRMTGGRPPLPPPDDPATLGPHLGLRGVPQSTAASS
Text: as §1
Test [10] concerns the target T2, 363 human kinases (including Aurora A/B/C) (Homo sapiens, UniProt Q15835).
T2 sequence (Q15835 1-563): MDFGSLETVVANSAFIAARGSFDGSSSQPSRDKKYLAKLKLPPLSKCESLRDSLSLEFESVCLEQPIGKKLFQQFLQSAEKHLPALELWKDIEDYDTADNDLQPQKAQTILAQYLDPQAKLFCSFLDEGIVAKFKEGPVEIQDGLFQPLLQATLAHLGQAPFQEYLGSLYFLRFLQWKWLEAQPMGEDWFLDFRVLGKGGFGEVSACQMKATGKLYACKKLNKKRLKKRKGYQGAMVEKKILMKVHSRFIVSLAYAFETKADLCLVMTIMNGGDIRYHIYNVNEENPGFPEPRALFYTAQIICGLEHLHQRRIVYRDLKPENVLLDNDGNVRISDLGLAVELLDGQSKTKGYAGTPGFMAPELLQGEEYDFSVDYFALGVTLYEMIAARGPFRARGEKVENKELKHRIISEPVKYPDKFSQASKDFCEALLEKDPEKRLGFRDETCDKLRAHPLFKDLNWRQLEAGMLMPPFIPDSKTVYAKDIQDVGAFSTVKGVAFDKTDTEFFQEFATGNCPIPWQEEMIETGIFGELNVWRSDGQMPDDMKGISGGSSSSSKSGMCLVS
To be noted: GRK1; for remaining activity at 0.1 µM: 100 nM; for remaining activity at 0.1 µM / remaining activity at 0.5 µM: read-out: % Enzyme Activity (relative to DMSO controls).
Text: as §1

Test [11] concerns the target T3, 363 human kinases (including Aurora A/B/C) (Homo sapiens, UniProt P42679).
T3 sequence (P42679 1-507): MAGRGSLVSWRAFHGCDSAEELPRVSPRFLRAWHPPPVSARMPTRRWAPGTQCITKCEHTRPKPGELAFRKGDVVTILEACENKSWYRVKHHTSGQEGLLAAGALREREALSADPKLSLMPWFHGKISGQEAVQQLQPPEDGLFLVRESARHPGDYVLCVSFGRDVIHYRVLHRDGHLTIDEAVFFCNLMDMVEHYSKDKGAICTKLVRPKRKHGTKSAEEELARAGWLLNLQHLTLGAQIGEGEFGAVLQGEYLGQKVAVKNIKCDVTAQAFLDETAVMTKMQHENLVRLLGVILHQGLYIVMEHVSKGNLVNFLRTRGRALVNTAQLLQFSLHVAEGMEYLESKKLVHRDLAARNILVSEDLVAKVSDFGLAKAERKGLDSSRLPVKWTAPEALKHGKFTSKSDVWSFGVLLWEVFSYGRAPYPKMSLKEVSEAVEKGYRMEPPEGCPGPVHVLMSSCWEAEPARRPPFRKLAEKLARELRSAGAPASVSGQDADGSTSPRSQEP
Conditions: CTK/MATK, [ATP] 100 µM; for remaining activity at 0.1 µM: 100 nM; for remaining activity at 0.1 µM / remaining activity at 0.5 µM: read-out: % Enzyme Activity (relative to DMSO controls).
Text: as §1

363 human kinases (including Aurora A/B/C) (Homo sapiens, UniProt Q9BXA6), sequence (Q9BXA6 whole entry): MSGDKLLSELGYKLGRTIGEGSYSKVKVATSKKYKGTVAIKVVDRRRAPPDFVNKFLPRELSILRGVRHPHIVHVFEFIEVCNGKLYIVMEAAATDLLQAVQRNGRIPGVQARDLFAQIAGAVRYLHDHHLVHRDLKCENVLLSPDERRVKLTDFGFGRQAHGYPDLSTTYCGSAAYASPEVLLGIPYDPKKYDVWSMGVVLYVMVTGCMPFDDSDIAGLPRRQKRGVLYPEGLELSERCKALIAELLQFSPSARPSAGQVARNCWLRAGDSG
363 human kinases (including Aurora A/B/C) (Homo sapiens, UniProt Q00537), sequence (Q00537 whole entry): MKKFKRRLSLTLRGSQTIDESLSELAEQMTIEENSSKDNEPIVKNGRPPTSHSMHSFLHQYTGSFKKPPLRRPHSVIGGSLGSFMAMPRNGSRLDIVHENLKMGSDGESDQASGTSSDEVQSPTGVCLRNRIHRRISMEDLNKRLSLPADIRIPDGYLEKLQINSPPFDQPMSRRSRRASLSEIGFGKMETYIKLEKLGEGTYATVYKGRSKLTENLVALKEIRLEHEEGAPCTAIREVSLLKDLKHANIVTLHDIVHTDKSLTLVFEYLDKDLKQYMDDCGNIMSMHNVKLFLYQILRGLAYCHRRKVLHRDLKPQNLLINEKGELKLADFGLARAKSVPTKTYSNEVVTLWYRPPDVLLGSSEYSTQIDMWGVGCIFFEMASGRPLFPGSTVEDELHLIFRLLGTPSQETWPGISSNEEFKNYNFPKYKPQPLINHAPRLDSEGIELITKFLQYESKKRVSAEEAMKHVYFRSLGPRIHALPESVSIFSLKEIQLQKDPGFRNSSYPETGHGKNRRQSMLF

As to `CCn1cc(-c2ccnc3[nH]c(-c4cccc(CN(C)C)c4)cc23)c(-c2ccc(NC(=O)N(C)C)cc2)n1` [GSK1070916], the remaining activity at 0.1 µM in test [1] worked out at 80.2%; in [2] it was 95.8%; in [3], 90.9%; in [4] it was 106%; in test [5], 100%; in test [6], 107%. The remaining activity at 0.1 µM in [7] was found to be 96.9%; in [8], 115%; in test [9] it was 99.6%; in test [10], 95.1%; in test [11], 82.4%.
`O=C(O)[C@]1(Cc2cccc(Nc3nccs3)n2)CC[C@@H](Oc2cccc(Cl)c2F)CC1` [MK-5108]: the remaining activity at 0.1 µM in test [1] was found to be 78.2%; in test [2], 94.5%; in test [3] it was 95.4%; in test [4], 99.2%; in [5], 95.1%; in test [6], 101%. Besides, the remaining activity at 0.1 µM in test [7] came to 89.1%; in test [8] it was 101%; in test [9], 91.7%; in [10], 99%; in test [11] it was 103%. Further, the remaining activity at 0.5 µM turned out to be 51.9% in [1] (500 nM); 107% in [2] (500 nM); 81.9% in test [3] (500 nM); 99.2% in [4] (500 nM); 104% in [5] (500 nM); 99.5% in [6] (500 nM). Also, the remaining activity at 0.5 µM is 73.5% in test [7] (500 nM); 116% in [8] (500 nM); 68.3% in test [9] (500 nM); 106% in [10] (500 nM); 129% in test [11] (500 nM).
For the compound `O=C(c1cccc(Cl)c1F)N1CCN(Cc2cccc(Nc3nccs3)n2)CC1` [MK-8745], the “% Enzyme Activity (relative to DMSO controls)” value turned out to be 92.34% in test [1] (500 nM); 96.21% in [2] (500 nM); 86.82% in test [3] (500 nM); 96.81% in test [4] (500 nM); 91.73% in [5] (500 nM); 101.95% in test [6] (500 nM). For the same compound, the “% Enzyme Activity (relative to DMSO controls)” value in [7] (500 nM) is listed as 89.65%; in [8] (500 nM), 108.75%; in test [9] (500 nM), 94.80%; in [10] (500 nM), 98.09%; in test [11] (500 nM), 86.22%. Further, the remaining activity at 0.5 µM is 95% in test [1] (500 nM); 96.8% in test [2] (500 nM); 87% in test [3] (500 nM); 97.1% in test [4] (500 nM); 94.5% in test [5] (500 nM); 105% in test [6] (500 nM). Besides, the remaining activity at 0.5 µM in [7] (500 nM) came out at 90.7%; in [8] (500 nM), 111%; in [9] (500 nM) it was 95.3%; in test [10] (500 nM) it was 101%; in [11] (500 nM), 86.8%.

For the origin of these results see PMC4685510, “A Cell Biologist’s Field Guide to Aurora Kinase Inhibitors” (Frontiers in Oncology, 2015).
